Laboratory results published in PMC4558515, “Exploring the role of MKK7 in excitotoxicity and cerebral ischemia: a novel pharmacological strategy against brain injury” (Cell Death & Disease, 2015).
Residues, ends and D or L forms follow the SMILES beside them. No end group written: not given here.

How the values were obtained:
12 DIV cortical neurons = test: LDH assay, intrinsic toxicity of peptides on cortical neurons; format: cell-based, rat; conditions: 24 h treatment, 1, 2.5, 5 and 10 μM; one-way ANOVA, P>0.05, n=8
Method: (§1) Neuroprotection was evaluated by an LDH assay.

[1] = test system: cortical neurons (12 h OGD); test: LDH assay, protection against oxygen–glucose deprivation (OGD); format: cell-based, rat; conditions: 5 μM, 30 min pre-treatment, n=6, P<0.01
Method: OGD was performed on cortical neurons maintained in an Hypoxia Incubator Chamber (StemCell Technologies, Vancouver, BC, Canada) for 12 h; during the first 4 min, oxygen in the chamber was replaced by a mixture of 95% N2 5% CO2; glucose deprivation was realized by substituting culture medium with glucose-free Neurobasal Medium (Life Technologies).
as §1

[2] = test system: middle cerebral artery occlusion (MCAo) in rats; test: MCAo model (electrocoagulation), infarct volume by TTC staining; format: in vivo, Sprague–Dawley rats
[3] = test system: MKK7 (P-MKK7/MKK7) in ipsilateral brain of MCAo rats; test: Western blot P-MKK7/MKK7 ratio in ischemic brain tissue; format: in vivo, Sprague–Dawley rats; conditions: 11 mg/kg 30 min before MCAO, n=3, P<0.05
Method: Actin was used as loading control. […] Actin was used as loading control. […] Actin was used as loading control. […] Actin was used as loading control.
Part I. Ischemia reperfusion (n=43). […] After 90 min, the clip was removed. […] Animals were initially killed 24 h post lesion.

[4] = test system: MKK7 (P-MKK7/MKK7) in cortical neurons; test: Western blot P-MKK7/MKK7 ratio in cortical neurons; conditions: 100 μM NMDA, versus CTR, n=6
[5] = target: T1, human recombinant full-length MKK7 (Homo sapiens, UniProt O14733); test: SPR binding of GADD45β69–86 to immobilized recombinant MKK7 (ProteOn XPR36); conditions: heterogenous ligand model
T1 construct: human recombinant full-length MKK7 (residues M1-R419, as in NCBI/Protein entry NP_660186.1); purchased ProQinase GmbH, Freiburg, Germany
T1 sequence (O14733 1-419): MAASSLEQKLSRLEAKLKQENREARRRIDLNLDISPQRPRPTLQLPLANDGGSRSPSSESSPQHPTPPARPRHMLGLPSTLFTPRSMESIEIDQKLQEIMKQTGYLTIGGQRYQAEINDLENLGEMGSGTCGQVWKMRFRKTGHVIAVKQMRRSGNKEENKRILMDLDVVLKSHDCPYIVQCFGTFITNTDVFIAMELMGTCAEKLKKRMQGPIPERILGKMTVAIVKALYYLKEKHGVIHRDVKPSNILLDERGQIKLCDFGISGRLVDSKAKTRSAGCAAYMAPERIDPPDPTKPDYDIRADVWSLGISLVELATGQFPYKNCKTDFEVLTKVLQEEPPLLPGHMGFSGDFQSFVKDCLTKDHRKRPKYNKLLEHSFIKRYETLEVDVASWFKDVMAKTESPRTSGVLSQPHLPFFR
Method: Figure 2 GADD45β69–86 interacts with recombinant MKK7. Starting at time 0, the indicated concentrations of GADD45β69–86 were injected for 150 s over SPR sensor surfaces on which 5000 RUs of human recombinant MKK7 had been previously captured by amine coupling. The SPR chip was then washed with buffer alone to monitor ligand dissociation. Fitted sensorgrams show GADD45β69–86 binding to recombinant MKK7 in RUs. The data were obtained by subtracting the reference channels, containing bovine serum albumin or no polypeptides.
Binding studies were performed on a ProteOn XPR36 Protein Interaction Array system (Bio-Rad Laboratories, Hercules, CA, USA). Detection of GADD45β69–86 interaction with MKK7 was performed by immobilizing ~5000 resonance units (RUs) of human recombinant full-length MKK7 (residues M1-R419, as in NCBI/Protein entry NP_660186.1; ProQinase GmbH, Freiburg, Germany) on the surface of a sensor chip (GL-C chip, Bio-Rad) by amine-coupling chemistry. GADD45β69–86 molecules were then perfused over the chip for 150 s to allow association, followed by 500 s buffer (PBST) wash to monitor dissociation. Signals were normalized to control channels containing ~5000 RUs of bovine serum albumin or no proteins. […]

[6] = target: T2, human recombinant full-length MKK7 (mitogen-activated protein kinase kinase 7) (human, UniProt O14733-1 1-419); test: SPR; ProteOn XPR36, GL-C chip; ~5000 RU of human recombinant full-length MKK7 immobilised by amine coupling; GADD45β_(69–86) perfused 150 s, then 500 s buffer (PBST) wash; referenced to channels with ~5000 RU bovine serum albumin or no protein; heterogenous ligand binding model; conditions: both partners purified
T2 construct: the vendor's protein may carry one (surmise); also called recombinant MKK7; source: bought: ProQinase GmbH
T2 sequence (looked up): T1 sequence (O14733 1-419)

MEK1/2 = conditions: cited from earlier work
Description: (§2) We took advantage of the growth arrest and DNA damage-inducible 45β (GADD45β) ability to bind MKK7.[9], [14], [15] GADD45β is involved in the control of cell stress responses in cell cycle, DNA repair and oncogenesis.[9], [16] […] More importantly, GADD45β inhibition is MKK7-specific and has no effect on MKK4, MKK3/6 and MEK1/2 activity.[9] The minimal essential domain of interaction between MKK7 and GADD45β has already been defined (GADD45β60–86 and 69–86 sequences).[15] We here used ...

MKK3/6 = conditions: cited from earlier work
Description: as §2

MKK4 = conditions: cited from earlier work
Description: as §2

MKK7 = conditions: cited from earlier work
Description: as §2

TAT-spacer-GADD45β60–86: cell-permeable MKK7 inhibitor peptide with spacer between TAT and GADD45β residues 60–86
neuronal death (LDH), intrinsic toxicity (12 DIV cortical neurons): did not induce neuronal death | inhibition of neuronal death induced by OGD (LDH) [1]: 95% | reduction of infarct volume (abstract) ([2]; 1 week after MCAo, administration time not given): 49% | infarct volume, in words ([2]; 12-h post-ischemic injection, not shown): did not significantly decrease the infarct volume | percentage of ischemic volume on the whole rat brain ([2]; 30 min before lesion, 24 h after lesion, mean±s.d., n=6, control 13.72±4.07% (n=5), P<0.01): 7.85±2.03% | reduction of infarcted volume ([2]; ICV (2 μl of 11 μg/μl; legend: 11 mg/kg) 30 min before lesion, 24 h after lesion, P<0.01): 43% | reduction of infarct volume ([2]; injected 6 h post ischemia, 1 week after MCAo): 44% | reduction of infarct volume (Conclusions) ([2]; injected 6 h post ischemia, 1 week after lesion): 49% | percentage of ischemic volume ([2]; injected 6 h post lesion, 1 week after MCAo, mean±S.D., n=5, P<0.01): 6.95±0.93% | percentage of ischemic volume on the whole rat brain ([2]; injected 6 h post lesion, 24 h after lesion, mean±S.D., n=5, P<0.01): 8.04±1.04% | reduction of infarct volume ([2]; pre-ischemic (30 min before) administration, 1 week after MCAo): ~50% | percentage of ischemic volume ([2]; pre-ischemic (30 min before) administration, 1 week after MCAo, mean±S.D., n=5, control 12.42±2.22% (n=5), P<0.01): 6.22±0.98% | reduction of P-MKK7/MKK7 ratio ([3]; 3 h after ischemia): 54% | reduction of P-MKK7/MKK7 ratio ([3]; 6 h after ischemia): 33%

CN[C@H](CC(=O)O)C(=O)O [NMDA, N-methyl-D-aspartate, reference compound]
increase of MKK7 phosphorylation ([4]; 5 min): 1.7 fold | increase of MKK7 phosphorylation ([4]; 30 min): 1.5 fold | increase of MKK7 phosphorylation ([4]; 60 min): 1.9 fold

CC[C@H](C)[C@H](N)C(=O)N[C@@H](C)C(=O)N[C@@H](CC(C)C)C(=O)N[C@@H](CCC(N)=O)C(=O)N[C@H](C(=O)N[C@@H](Cc1c[nH]cn1)C(=O)N[C@@H](Cc1ccccc1)C(=O)N[C@H](C(=O)N[C@@H](CC(C)C)C(=O)N[C@H](C(=O)N[C@@H](CCC(N)=O)C(=O)N[C@@H](CO)C(=O)N[C@@H](Cc1ccccc1)C(=O)N[C@@H](CS)C(=O)N[C@@H](CS)C(=O)N[C@@H](CC(=O)O)C(=O)N[C@@H](CC(N)=O)C(=O)N[C@@H](CC(=O)O)C(N)=O)[C@@H](C)CC)[C@@H](C)O)[C@@H](C)CC [GADD45β69–86] (H-IALQIHFTLIQSFCCDND-NH2)
koff [5]: 0.0013 s⁻¹ | kon [5]: 315 M⁻¹ s⁻¹

B1: GADD45β_(69–86) peptide (peptide)
peptide: IALQIHFTLIQSFCCDND
modifications: not fully specified (C-terminus); cysteine pairing not given here
notes: growth arrest and DNA damage-inducible 45β (GADD45β), residues 69-86 (the α-helix)
Kd [6]: 3.71 µM

B2: GADD45β: growth arrest and DNA damage-inducible 45β protein, binds MKK7 (protein, UniProt O75293 1-160, looked up)
Growth arrest and DNA …: MTLEELVACDNAAQKMQTVTAAVEELLVAAQRQDRLTVGVYESAKLMNVDPDSVVLCLLAIDEEEEDDIALQIHFTLIQSFCCDNDINIVRVSGMQRLAQLLGEPAETQGTTEARDLHCLLVTNPHTDAWKSHGLVEVASYCEESRGNNQWVPYISLQER
effect on MEK1/2 activity, in words (MEK1/2): no effect | effect on MKK3/6 activity, in words (MKK3/6): no effect | effect on MKK4 activity, in words (MKK4): no effect | binding to MKK7, in words (MKK7): binds tightly to MKK7 | inhibition of MKK7 enzymatic activity, in words (MKK7): inhibits its enzymatic activity
